Laboratory results reported in ChEMBL document CHEMBL1151983, “Antiprotealide is a natural product” (J Nat Prod, 2009).
“And” between values parts separate entries of the source, which are not always exact repeats. Equal entries are not always repeated.

What was measured:
[1] = Inhibition of chymotrypsin-like activity of rabbit 20S proteasome; parameters: species or system Oryctolagus cuniculus
[2] = Inhibition of caspase-like activity of rabbit 20S proteasome; parameters: species or system Oryctolagus cuniculus
RPMI-8226 = assay: Cytotoxicity against human RPMI8226 cells after 48 hrs by resazurin assay; format: functional, cell-based
[3] = Inhibition of trypsin-like activity of rabbit 20S proteasome; parameters: species or system Oryctolagus cuniculus

| Structure (SMILES) | IC50 [1] | IC50 [2] [nM] | IC50 (RPMI-8226; Homo sapiens, RPMI-8226, 48 h) [nM] | IC50 [3] | IC50 (RPMI-8226; rpmi-8226) [nM] |
| --- | --- | --- | --- | --- | --- |
| C[C@@]12OC(=O)[C@]1([C@@H](O)[C@@H]1C=CCCC1)NC(=O)[C@@H]2CCCl [MARIZOMIB] | 4 nM | 364 | 11 | 34 nM | – |
| CC(C)[C@H](O)[C@@]12NC(=O)[C@H](CCCl)[C@]1(C)OC2=O [ANTIPROTEALIDE] | 27 nM and 31 nM | > 20000 | 220 | 211 nM and 262 nM | 283 |
